System: freshly isolated mononuclear cells from AML samples
Assay: Ex vivo functional drug screen (MTS viability, AUC) on primary AML samples, compared by mutation or clinical group
Type: cell-based, human
Settings: for drug sensitivity of mutant cases: BCOR mutation alone
From the text: This panel contained graded concentrations of a drugs with activity against two-thirds of the tyrosine kinome as well as other non-tyrosine kinase pathways, including MAPKs, PI3K/AKT/mTOR, AMPK, ATM, Aurora kinases, CAMKs, CDKs, GSK3a/b, IκK, PKA, PKC, PLK1, and RAF. In addition, the library contained small molecule inhibitors with activity against the BCL2 family, BRD4, Hedgehog, HSP90, NOTCH/gamma-secretase, proteasome, survivin, STAT3, and WNT/beta-catenin. Drug sensitivity patterns were analyzed with respect to clinical and genetic features of tumors. We compared the average area-under-the curve (AUC) values for each drug between the de novo and transformed samples via a series of single factor ANOVAs. […] In addition, we analyzed the concordance of drug sensitivity patterns with respect to predicted target gene, gene family, or pathway for each drug. […] To create a global view of overall sensitivity or resistance of each case, we generated a heatmap of binary sensitive/resistant calls for each sample to each drug.
Correlation of drug sensitivity with mutational events was performed by assessing the range of sensitivity of cases with mutation of an individual gene (as well as co-occurring mutational events) versus cases with wild type sequence for that same gene. […] The difference in average drug sensitivity of mutant versus wild type cases for each drug/mutation pair was plotted on the horizontal axis of a volcano plot with a test for statistical significance of the comparison plotted on the vertical axis (corrected for multiple comparison false discovery rate^42; FIG. 4). […] To aid in discovery of potential mutational biomarkers of drug sensitivity, we plotted volcano plots that were specific to each individual drug (versus all possible mutational events) and for each individual gene (versus all possible drugs tested).
Ex vivo drug screens were performed on freshly isolated mononuclear cells from AML samples as previously described^41.
Ex vivo functional drug screens were performed on freshly isolated mononuclear cells from AML samples. […] Drug plates were created using inhibitors purchased from LC Laboratories and Selleck Chemicals and master stocks were reconstituted in DMSO and stored at −80° C. […] DMSO control wells and positive control wells containing a drug combination of Flavopiridol, Staurosporine and Velcade were placed on each plate, with the final concentration of DMSO ≤0.1% in all wells. Daughter plates were created using a V&P Scientific 384-well pin tool head operated by the Caliper Sciclone ALH 3000 and equipped with 0.457 mm diameter, 30 nanoliter, slotted stainless steel pins (cat num: FP1NS30). Daughter and destination plates were sealed with pealable thermal seals using a PlateLoc thermal sealer. Destination plates were stored at −20° C. for no more than three months and thawed immediately before use. Primary mononuclear cells were plated across single-agent inhibitor panels within 24 h of collection. […] After 3 d of culture at 37° C. in 5% CO2, MTS reagent (CellTiter96 AQueous One; Promega) was added, optical density was measured at 490 nm, and raw absorbance values were adjusted to a reference blank value and then used to determine cell viability (normalized to untreated control wells).
A given sample was run on one or more panels and within each panel, the majority of drugs were run without within-panel replicates. […] An additional set of ‘curve-free’ AUCs was computed for sample-inhibitor pairs run on multiple panels.
Based on the methodology used in our prior drug combination study^36, a probit regression was fit to all possible run groups using the model: (normalized_viability/100)˜1+log 10(concentration) Where for all groups there were N=7 dose-response measurements. The summary measures of curve fit were inspected and cutoffs were devised removing all runs with an AIC >12 and deviance >2.

CCn1c(-c2nonc2N)nc2c(C#CC(C)(C)O)ncc(OC[C@H]3CCCNC3)c21 [GSK690693]
drug sensitivity mutant vs wild type (average difference in AUC; top left quadrant of volcano plot) (MLLT3.KMT2A): GSK690693

C[C@@H](Oc1cc(-c2cnn(C3CCNCC3)c2)cnc1N)c1c(Cl)ccc(F)c1Cl [Crizotinib]
drug sensitivity mutant vs wild type (average difference in AUC; top left quadrant of volcano plot) (BCOR): Crizotinib
drug sensitivity of mutant cases: did show sensitivity
drug sensitivity mutant vs wild type (average difference in AUC; top left quadrant of volcano plot) (FLT3_ITD): crizotinib
drug sensitivity mutant vs wild type (average difference in AUC; top left quadrant of volcano plot) (FLT3_ITD:SRSF2): crizotinib
drug sensitivity mutant vs wild type (average difference in AUC; top left quadrant of volcano plot) (IDH2): Crizotinib
drug sensitivity mutant vs wild type (average difference in AUC; top left quadrant of volcano plot) (NPM1:CEBPA): Crizotinib
drug sensitivity mutant vs wild type (average difference in AUC; top left quadrant of volcano plot) (NPM1:FLT3_ITD): crizotinib
drug sensitivity mutant vs wild type (average difference in AUC; top left quadrant of volcano plot) (SMC1A): crizotinib
drug sensitivity mutant vs wild type (average difference in AUC; top left quadrant of volcano plot) (SRSF2:IDH2): Crizotinib

COc1ccc(COc2ccc(Cc3cnc(N)nc3N)cc2OC)cc1 [GW-2580]
drug sensitivity mutant vs wild type (average difference in AUC; top left quadrant of volcano plot) (IDH2): GW-2580
drug sensitivity mutant vs wild type (average difference in AUC; top left quadrant of volcano plot) (NPM1:IDH2): GW-2580
drug sensitivity mutant vs wild type (average difference in AUC; top left quadrant of volcano plot) (NPM1:SRSF2): gw-2580

Cc1[nH]c(/C=C2\C(=O)Nc3ccc(S(=O)(=O)Cc4c(Cl)cccc4Cl)cc32)c(C)c1C(=O)N1CCC[C@@H]1CN1CCCC1 [PHA-665752]
drug sensitivity mutant vs wild type (average difference in AUC; top left quadrant of volcano plot) (IDH2): PHA-665752

O=c1cc(-c2cccc3c2Sc2ccccc2S3)oc(N2CCOCC2)c1 [KU-55933]
drug sensitivity mutant vs wild type (average difference in AUC; top left quadrant of volcano plot) (ZRSR2): KU-55933

C#Cc1cccc(Nc2ncnc3cc(OCCOC)c(OCCOC)cc23)c1 [erlotinib]
drug sensitivity mutant vs wild type (average difference in AUC; top left quadrant of volcano plot) (FLT3_ITD:DNMT3A): erlotinib
drug sensitivity mutant vs wild type (average difference in AUC; top left quadrant of volcano plot) (NPM1): erlotinib
drug sensitivity mutant vs wild type (average difference in AUC; top left quadrant of volcano plot) (NPM1:FLT3_ITD:DNMT3A): erlotinib
drug sensitivity mutant vs wild type (average difference in AUC; top left quadrant of volcano plot) (NPM1:FLT3_ITD:TET2): erlotinib
drug sensitivity mutant vs wild type (average difference in AUC; top left quadrant of volcano plot) (NPM1:IDH1): erlotinib
drug sensitivity mutant vs wild type (average difference in AUC; top left quadrant of volcano plot) (NPM1:IDH2): erlotinib
drug sensitivity mutant vs wild type (average difference in AUC; top left quadrant of volcano plot) (NPM1:SRSF2): erlotinib

O=c1[nH]c(-c2ccc(C(F)(F)F)cc2)nc2c1CSCC2 [XAV-939, 3,5,7,8-Tetrahydro-2-[4-(trifluoromethyl)phenyl]-4H-thiopyrano[4,3-d]pyrimidin-4-one]
drug sensitivity mutant vs wild type (average difference in AUC; top left quadrant of volcano plot) (BCOR): XAV-939
drug sensitivity of mutant cases: did show sensitivity
drug sensitivity mutant vs wild type (average difference in AUC; top left quadrant of volcano plot) (BCOR:ASXL1): XAV-939
drug sensitivity mutant vs wild type (average difference in AUC; top left quadrant of volcano plot) (BCOR:DNMT3A): XAV-939
drug sensitivity mutant vs wild type (average difference in AUC; top left quadrant of volcano plot) (BCOR:SRSF2): XAV-939

CNC(=O)c1c(F)cccc1Nc1nc(Nc2cc3c(cc2OC)CCN3C(=O)CN(C)C)nc2[nH]ccc12 [GSK-1838705A]
drug sensitivity mutant vs wild type (average difference in AUC; top left quadrant of volcano plot) (IDH2): GSK-1838705A
drug sensitivity mutant vs wild type (average difference in AUC; top left quadrant of volcano plot) (NPM1:IDH2): GSK-1838705A
drug sensitivity mutant vs wild type (average difference in AUC; top left quadrant of volcano plot) (NPM1:SRSF2): GSK-183705A
drug sensitivity mutant vs wild type (average difference in AUC; top left quadrant of volcano plot) (SMC1A): GSK-1838705A
drug sensitivity mutant vs wild type (average difference in AUC; top left quadrant of volcano plot) (SRSF2:IDH2): GSK-1838705A

Cn1c(Nc2ccc(C(F)(F)F)cc2)nc2cc(Oc3ccnc(-c4ncc(C(F)(F)F)[nH]4)c3)ccc21 [RAF265, 1-methyl-5-((2-(5-(trifluoromethyl)-1H-imidazol-2-yl)pyridin-4-yl)oxy)-N-(4-(trifluoromethyl)phenyl)-1H-benzo[d]imidazol-2-amine]
drug sensitivity mutant vs wild type (average difference in AUC; top left quadrant of volcano plot) (BCOR): RAF265
drug sensitivity mutant vs wild type (average difference in AUC; top left quadrant of volcano plot) (WT1): RAF265

Clc1ccc(Nc2nnc(Cc3ccncc3)c3ccccc23)cc1 [Vatalanib]
drug sensitivity mutant vs wild type (average difference in AUC; top left quadrant of volcano plot) (FLT3_ITD): vatalanib
drug sensitivity mutant vs wild type (average difference in AUC; top left quadrant of volcano plot) (FLT3_ITD:ASXL1): vatalanib
drug sensitivity mutant vs wild type (average difference in AUC; top left quadrant of volcano plot) (MLLT3.KMT2A): Vatalanib
drug sensitivity mutant vs wild type (average difference in AUC; top left quadrant of volcano plot) (NPM1:FLT3_ITD): vatalanib
drug sensitivity mutant vs wild type (average difference in AUC; top left quadrant of volcano plot) (SMC1A): Vatalanib

NC1(c2ccc(-c3nc4ccn5c(=O)[nH]nc5c4cc3-c3ccccc3)cc2)CCC1 [MK-2206]
drug sensitivity mutant vs wild type (average difference in AUC; top left quadrant of volcano plot) (WT1): MK-2206

Cc1cc(Nc2nc(N[C@@H](C)c3ncc(F)cn3)ncc2Cl)n[nH]1 [AZD1480]
drug sensitivity mutant vs wild type (average difference in AUC; top left quadrant of volcano plot) (NPM1:SRSF2:IDH2): AZD1480

CC1(C)CNc2cc(NC(=O)c3cccnc3NCc3ccncc3)ccc21 [motesanib]
drug sensitivity mutant vs wild type (average difference in AUC; top left quadrant of volcano plot) (FLT3_ITD:RUNX1): motesanib

COc1c(Cl)cc2c([nH]c3cnccc32)c1NC(=O)c1cccnc1C [MLN120B]
drug sensitivity mutant vs wild type (average difference in AUC; top left quadrant of volcano plot) (NPM1:IDH2): MLN120B
drug sensitivity mutant vs wild type (average difference in AUC; top left quadrant of volcano plot) (NPM1:SRSF2): MLN120B

COc1cc(Oc2ccnc3cc(OC)c(OC)cc23)ccc1NC(=O)NC(C)c1nccs1 (stereo not drawn) [KI20227]
drug sensitivity mutant vs wild type (average difference in AUC; top left quadrant of volcano plot) (NPM1:SRSF2:IDH2): KI20227

CNC(=O)c1cc(Oc2ccc(NC(=O)Nc3ccc(Cl)c(C(F)(F)F)c3)c(F)c2)ccn1 [Regorafenib]
drug sensitivity mutant vs wild type (average difference in AUC; top left quadrant of volcano plot) (FLT3_ITD): regorafenib
drug sensitivity mutant vs wild type (average difference in AUC; top left quadrant of volcano plot) (NPM1): Regorafenib
drug sensitivity mutant vs wild type (average difference in AUC; top left quadrant of volcano plot) (NPM1:DNMT3A): Regorafenib
drug sensitivity mutant vs wild type (average difference in AUC; top left quadrant of volcano plot) (NPM1:FLT3_ITD): regorafenib
drug sensitivity mutant vs wild type (average difference in AUC; top left quadrant of volcano plot) (NPM1:FLT3_ITD:DNMT3A): regorafenib
drug sensitivity mutant vs wild type (average difference in AUC; top left quadrant of volcano plot) (NPM1:IDH2): regorafenib
drug sensitivity mutant vs wild type (average difference in AUC; top left quadrant of volcano plot) (NPM1:SRSF2): regorafenib
drug sensitivity mutant vs wild type (average difference in AUC; top left quadrant of volcano plot) (NPM1:TET2: DNMT3A): Regorafenib

Cn1c2ccccc2c2c3c(c4c5ccccc5n(CCC#N)c4c21)CNC3=O [Go6976]
drug sensitivity mutant vs wild type (average difference in AUC; top left quadrant of volcano plot) (CBFB.MYH11): Go6976

CS(=O)(=O)c1ccc(C(=O)Nc2ccc(Cl)c(-c3ccccn3)c2)c(Cl)c1 [Vismodegib]
drug sensitivity mutant vs wild type (average difference in AUC; top left quadrant of volcano plot) (WT1): Vismodegib

Cn1cc(-c2ccc3nnc(C(F)(F)c4ccc5ncccc5c4)n3n2)cn1 [JNJ-38877605]
drug sensitivity mutant vs wild type (average difference in AUC; top left quadrant of volcano plot) (BCOR:RUNX1): JNJ-38877605

CC(C)(C)c1cnc(CSc2cnc(NC(=O)C3CCNCC3)s2)o1 [SNS-032]
drug sensitivity mutant vs wild type (average difference in AUC; top left quadrant of volcano plot) (ASXL1): SNS-032 (BMS-387032)
drug sensitivity mutant vs wild type (average difference in AUC; top left quadrant of volcano plot) (NPM1): SNS-032

CC1(COc2ccc3c(c2)ncn3-c2ccc3cccc(N4CCC(N)CC4)c3n2)COC1 [Crenolanib]
drug sensitivity mutant vs wild type (average difference in AUC; top left quadrant of volcano plot) (CBFB.MYH11): Crenolanib
drug sensitivity mutant vs wild type (average difference in AUC; top left quadrant of volcano plot) (DNMT3A:FLT3): Crenolanib
drug sensitivity mutant vs wild type (average difference in AUC; top left quadrant of volcano plot) (NPM1): crenolanib
drug sensitivity mutant vs wild type (average difference in AUC; top left quadrant of volcano plot) (NPM1:DNMT3A): Crenolanib

Cn1c(=O)n(-c2ccc(C(C)(C)C#N)cc2)c2c3cc(-c4cnc5ccccc5c4)ccc3ncc21 [BEZ2345]
drug sensitivity mutant vs wild type (average difference in AUC; top left quadrant of volcano plot) (RUNX1): BEZ2345
correlation of mutation with drug sensitivity (mutation of RUNX1): correlated with sensitivity

C=CC(=O)Nc1cc2c(Nc3ccc(F)c(Cl)c3)ncnc2cc1OCCCN1CCOCC1 [canertinib]
drug sensitivity mutant vs wild type (average difference in AUC; top left quadrant of volcano plot) (FLT3_ITD): canertinib
drug sensitivity mutant vs wild type (average difference in AUC; top left quadrant of volcano plot) (FLT3_ITD:TET2): canertinib
drug sensitivity mutant vs wild type (average difference in AUC; top left quadrant of volcano plot) (FLT3_ITD_IHD2): canertinib
drug sensitivity mutant vs wild type (average difference in AUC; top left quadrant of volcano plot) (NPM1:FLT3_ITD): canertinib
drug sensitivity mutant vs wild type (average difference in AUC; top left quadrant of volcano plot) (SMC1A): canertinib
